In patent US20230416203A1, “POTENT AND SELECTIVE INHIBITORS OF THE CALCIUM-ACTIVATED POTASSIUM CHANNEL, KCA3.1, FOR USE AS PLATFORM THERAPEUTICS” (priority 2020, published 2023):

Experiments:
CYP-2C19 = CYP-2C19 (Homo sapiens, UniProt P33261); test: Cytochrome P450 enzymes inhibition assay, CYP-2C19; type: in vitro ADME; conditions: for CYP IC50/KCa3.1 IC50: CYP-2C19
Source text: (§1) The metabolite formation for each substrate under the above conditions was estimated using the following formula: Percent inhibition=[1−(test area ratio/control area ratio)]×100.

KV1.5 = molecular target: T1, KV1.5 (Homo sapiens, UniProt P22460); test: Potassium channels patch-clamp (QPatch), KV1.5; type: cell-based
T1 construct: expressed in transfected cells; host or cells: MEL
Protocol: (§2) The effects of Group 4 compounds on related potassium channels were evaluated by patch-clamp using a QPatch HTX automated electrophysiology platform (Sophion, Denmark). The giga-seal and whole-cell requirements for the automated electrophysiology were the following: minimum seal resistance=0.1 GO, holding potential=−80 mV, holding pressure=−20 mbar; and positioning pressure=−70 mbar.

[1] = Microsomal stability studies; conditions: for Microsomal Stability (human) % remaining @ 30 mins: human microsomes, 1 μM; for drug/control (% remaining @ 30 mins): ratio to Verapamil control
KV1.4 = molecular target: T2, KV1.4 (Homo sapiens, UniProt P22459); test: Potassium channels patch-clamp (QPatch), KV1.4; type: cell-based
T2 construct: expressed in transfected cells; host or cells: LTK
Protocol: as §2

CYP-2C9 = CYP-2C9 (Homo sapiens, UniProt P11712); test: Cytochrome P450 enzymes inhibition assay, CYP-2C9; type: in vitro ADME; conditions: for CYP IC50/KCa3.1 IC50: CYP-2C9
Source text: as §1

KCa3.1 channel = KCa3.1 channel (Homo sapiens, UniProt O15554); test: KCa3.1 patch-clamp (QPatch HTX automated and manual); type: cell-based
Protocol: The effect of the compounds on KCa3.1 channel was evaluated by patch-clamp using a QPatch HTX automated electrophysiology platform (Sophion, Denmark) and by manual patch-clamp (HEKA, Germany). For QPatch experiments, the giga-seal and whole-cell requirements for the automated electrophysiology were the following: minimum seal resistance=0.1 GQ; holding potential=−80 mV; holding pressure=−20 mbar; and positioning pressure=−70 mbar. For KCa3.1 experiment, the external solution was Na^+-Ringer's and contained (in mM): 160 NaCl; 10 HEPES; 4.5 KCl; 1 MgCl2; and 2 CaCl2 (pH=7.4, 310 mOsm). […] Following establishment of the whole-cell configuration, cells were held at −80 mV and KCa3.1 currents elicited by a voltage protocol that held at −80 mV for 20 ms, stepped to −120 mV for 20 ms, ramped from −120 to +40 mV over 200 ms, and then stepped back to −120 mV for 20 ms. This pulse protocol was applied every 10 s. Current slopes (in amperes per second) were measured using the Sophion QPatch software and exported to Microsoft Excel and GraphPad Prism 7 for analysis. […] Curve-fitting and IC50 determination were performed using GraphPad Prism software.

KV1.1 = molecular target: T3, KV1.1 (Mus musculus, UniProt P16388); test: Potassium channels patch-clamp (QPatch), KV1.1; type: cell-based
T3 construct: expressed in transfected cells; host or cells: L929
Protocol: as §2

CYP-3A4 = molecular target: T4, CYP-3A4 (Homo sapiens, UniProt P08684); test: Cytochrome P450 enzymes inhibition assay, CYP-3A4; type: in vitro ADME; conditions: for CYP IC50/KCa3.1 IC50: CYP-3A4
T4 construct: from tissue
Source text: as §1

KV1.3 = molecular target: T5, KV1.3 (Mus musculus, UniProt P16390); test: Potassium channels patch-clamp (QPatch), KV1.3; type: cell-based
T5 construct: expressed in transfected cells; host or cells: L929
Protocol: as §2

in vitro = conditions: human, microsomes, pH 7.4
KV1.7 = molecular target: T6, KV1.7 (Homo sapiens, UniProt Q96RP8); test: Potassium channels patch-clamp (QPatch), KV1.7; type: cell-based
T6 construct: expressed in transfected cells; host or cells: CHL
Protocol: as §2

KV11.1 (hERG) = molecular target: T7, KV11.1 (hERG) (Homo sapiens, UniProt Q12809); test: Potassium channels patch-clamp (QPatch), KV11.1 (hERG); type: cell-based
T7 construct: host or cells: CHO
Protocol: as §2

KCa2.2 = molecular target: T8, KCa2.2 (Rattus norvegicus, UniProt P70604); test: Potassium channels patch-clamp (QPatch), KCa2.2; type: cell-based
T8 construct: expressed in transfected cells; host or cells: HEK
Protocol: as §2

KV4.2 = molecular target: T9, KV4.2 (Rattus norvegicus, UniProt Q63881); test: Potassium channels patch-clamp (QPatch), KV4.2; type: cell-based
T9 construct: expressed in transfected cells; host or cells: LTK
T9 sequence (Q63881 1-630): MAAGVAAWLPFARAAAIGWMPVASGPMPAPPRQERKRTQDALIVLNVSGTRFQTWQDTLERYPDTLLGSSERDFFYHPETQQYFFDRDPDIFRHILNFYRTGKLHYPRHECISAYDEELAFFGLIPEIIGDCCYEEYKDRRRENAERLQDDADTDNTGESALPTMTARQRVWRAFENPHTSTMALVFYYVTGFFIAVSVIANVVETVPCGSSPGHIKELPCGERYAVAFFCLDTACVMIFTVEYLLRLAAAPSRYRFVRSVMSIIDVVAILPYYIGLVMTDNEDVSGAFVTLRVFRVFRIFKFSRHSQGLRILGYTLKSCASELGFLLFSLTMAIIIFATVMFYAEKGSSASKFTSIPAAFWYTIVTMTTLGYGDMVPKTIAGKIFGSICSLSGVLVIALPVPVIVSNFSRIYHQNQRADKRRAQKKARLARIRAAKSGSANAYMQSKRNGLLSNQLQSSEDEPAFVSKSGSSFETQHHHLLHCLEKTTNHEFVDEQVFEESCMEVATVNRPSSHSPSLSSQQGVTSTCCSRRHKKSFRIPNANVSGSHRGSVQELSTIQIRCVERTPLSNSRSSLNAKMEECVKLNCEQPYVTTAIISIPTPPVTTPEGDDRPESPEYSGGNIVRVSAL
Protocol: as §2

KV3.1 = molecular target: T10, KV3.1 (Mus musculus, UniProt P15388); test: Potassium channels patch-clamp (QPatch), KV3.1; type: cell-based
T10 construct: expressed in transfected cells; host or cells: L929
T10 sequence (P15388 1-511): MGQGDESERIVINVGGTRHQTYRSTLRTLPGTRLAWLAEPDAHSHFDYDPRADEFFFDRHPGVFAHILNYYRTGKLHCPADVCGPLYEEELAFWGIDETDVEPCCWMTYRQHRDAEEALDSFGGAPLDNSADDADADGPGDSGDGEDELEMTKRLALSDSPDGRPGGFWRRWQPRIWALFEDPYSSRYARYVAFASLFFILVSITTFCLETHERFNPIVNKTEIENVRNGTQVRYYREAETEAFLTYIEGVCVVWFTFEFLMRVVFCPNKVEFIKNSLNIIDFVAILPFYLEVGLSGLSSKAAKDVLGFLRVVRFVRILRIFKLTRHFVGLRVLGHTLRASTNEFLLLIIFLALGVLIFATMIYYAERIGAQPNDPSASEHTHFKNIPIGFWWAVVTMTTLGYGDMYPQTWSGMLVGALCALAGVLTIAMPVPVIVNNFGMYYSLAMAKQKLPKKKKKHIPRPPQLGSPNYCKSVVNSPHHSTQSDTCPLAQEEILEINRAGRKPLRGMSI
Protocol: as §2

Chain of CYP-2C19 (P33261 whole entry): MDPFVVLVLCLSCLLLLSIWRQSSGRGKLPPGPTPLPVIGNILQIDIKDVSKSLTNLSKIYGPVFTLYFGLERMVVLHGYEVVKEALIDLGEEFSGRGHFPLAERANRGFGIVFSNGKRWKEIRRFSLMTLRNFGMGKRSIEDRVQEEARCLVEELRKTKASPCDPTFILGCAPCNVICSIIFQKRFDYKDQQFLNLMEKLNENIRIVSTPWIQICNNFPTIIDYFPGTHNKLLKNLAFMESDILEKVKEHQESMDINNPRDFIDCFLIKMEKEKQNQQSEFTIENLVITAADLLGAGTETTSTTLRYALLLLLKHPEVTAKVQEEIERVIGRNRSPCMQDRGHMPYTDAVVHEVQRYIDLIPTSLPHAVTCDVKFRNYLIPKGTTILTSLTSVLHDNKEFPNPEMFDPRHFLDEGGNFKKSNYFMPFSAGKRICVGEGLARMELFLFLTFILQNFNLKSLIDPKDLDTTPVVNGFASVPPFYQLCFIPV
Chain of CYP-2C9 (P11712 whole entry): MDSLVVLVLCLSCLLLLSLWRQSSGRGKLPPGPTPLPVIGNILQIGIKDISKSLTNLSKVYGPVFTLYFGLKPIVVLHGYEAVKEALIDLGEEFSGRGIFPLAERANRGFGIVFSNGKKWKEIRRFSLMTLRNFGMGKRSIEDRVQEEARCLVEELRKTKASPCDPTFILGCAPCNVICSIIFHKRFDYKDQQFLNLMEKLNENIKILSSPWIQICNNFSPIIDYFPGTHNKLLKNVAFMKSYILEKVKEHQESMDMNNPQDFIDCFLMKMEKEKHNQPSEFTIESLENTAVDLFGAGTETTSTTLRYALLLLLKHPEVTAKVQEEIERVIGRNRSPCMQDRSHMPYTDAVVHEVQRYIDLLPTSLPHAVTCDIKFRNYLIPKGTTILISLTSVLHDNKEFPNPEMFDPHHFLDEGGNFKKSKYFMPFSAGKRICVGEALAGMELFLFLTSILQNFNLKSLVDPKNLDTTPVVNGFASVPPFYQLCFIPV
T4 sequence (P08684 whole entry): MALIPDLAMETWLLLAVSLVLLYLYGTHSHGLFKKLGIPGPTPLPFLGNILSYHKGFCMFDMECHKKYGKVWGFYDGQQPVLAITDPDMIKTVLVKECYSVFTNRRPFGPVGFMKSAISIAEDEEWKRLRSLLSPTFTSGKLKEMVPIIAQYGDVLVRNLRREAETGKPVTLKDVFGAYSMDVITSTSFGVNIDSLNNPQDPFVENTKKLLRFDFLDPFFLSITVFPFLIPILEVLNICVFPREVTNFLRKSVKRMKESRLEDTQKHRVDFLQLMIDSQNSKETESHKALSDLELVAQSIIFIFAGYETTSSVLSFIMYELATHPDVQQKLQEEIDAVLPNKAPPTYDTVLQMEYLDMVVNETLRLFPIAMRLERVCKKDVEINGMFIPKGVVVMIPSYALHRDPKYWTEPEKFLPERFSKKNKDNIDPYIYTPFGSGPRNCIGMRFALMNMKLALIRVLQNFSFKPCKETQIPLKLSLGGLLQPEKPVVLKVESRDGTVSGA
T1 sequence (P22460 whole entry): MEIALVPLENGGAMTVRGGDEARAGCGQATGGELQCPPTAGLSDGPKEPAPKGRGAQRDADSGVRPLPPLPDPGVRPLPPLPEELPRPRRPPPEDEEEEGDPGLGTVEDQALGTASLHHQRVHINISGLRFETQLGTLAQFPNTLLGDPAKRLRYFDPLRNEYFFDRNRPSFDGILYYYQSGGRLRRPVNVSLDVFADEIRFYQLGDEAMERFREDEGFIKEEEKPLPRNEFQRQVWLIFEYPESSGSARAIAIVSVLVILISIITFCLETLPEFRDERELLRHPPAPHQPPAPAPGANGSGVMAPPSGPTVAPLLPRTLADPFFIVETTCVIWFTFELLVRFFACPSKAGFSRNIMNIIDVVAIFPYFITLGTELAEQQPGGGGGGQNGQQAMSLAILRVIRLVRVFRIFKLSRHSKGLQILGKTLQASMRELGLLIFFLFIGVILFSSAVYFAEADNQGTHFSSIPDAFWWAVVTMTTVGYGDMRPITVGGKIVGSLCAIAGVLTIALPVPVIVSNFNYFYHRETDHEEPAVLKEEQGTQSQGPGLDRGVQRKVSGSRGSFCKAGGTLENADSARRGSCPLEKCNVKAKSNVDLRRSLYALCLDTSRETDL
T8 sequence (P70604 whole entry): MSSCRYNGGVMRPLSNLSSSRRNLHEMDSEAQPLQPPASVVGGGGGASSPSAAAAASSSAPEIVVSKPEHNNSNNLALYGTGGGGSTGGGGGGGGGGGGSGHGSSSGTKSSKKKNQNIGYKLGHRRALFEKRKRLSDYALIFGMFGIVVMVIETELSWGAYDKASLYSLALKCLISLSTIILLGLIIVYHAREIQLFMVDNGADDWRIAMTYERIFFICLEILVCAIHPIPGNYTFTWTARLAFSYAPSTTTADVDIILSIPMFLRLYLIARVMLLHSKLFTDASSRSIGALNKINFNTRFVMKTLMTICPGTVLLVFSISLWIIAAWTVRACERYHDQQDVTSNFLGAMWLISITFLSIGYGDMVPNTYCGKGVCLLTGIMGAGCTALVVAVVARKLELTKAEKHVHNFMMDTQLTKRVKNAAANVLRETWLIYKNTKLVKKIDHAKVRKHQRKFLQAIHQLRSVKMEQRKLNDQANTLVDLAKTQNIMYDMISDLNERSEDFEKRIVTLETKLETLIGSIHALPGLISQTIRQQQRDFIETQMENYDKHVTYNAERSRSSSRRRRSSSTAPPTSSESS
T2 sequence (P22459 whole entry): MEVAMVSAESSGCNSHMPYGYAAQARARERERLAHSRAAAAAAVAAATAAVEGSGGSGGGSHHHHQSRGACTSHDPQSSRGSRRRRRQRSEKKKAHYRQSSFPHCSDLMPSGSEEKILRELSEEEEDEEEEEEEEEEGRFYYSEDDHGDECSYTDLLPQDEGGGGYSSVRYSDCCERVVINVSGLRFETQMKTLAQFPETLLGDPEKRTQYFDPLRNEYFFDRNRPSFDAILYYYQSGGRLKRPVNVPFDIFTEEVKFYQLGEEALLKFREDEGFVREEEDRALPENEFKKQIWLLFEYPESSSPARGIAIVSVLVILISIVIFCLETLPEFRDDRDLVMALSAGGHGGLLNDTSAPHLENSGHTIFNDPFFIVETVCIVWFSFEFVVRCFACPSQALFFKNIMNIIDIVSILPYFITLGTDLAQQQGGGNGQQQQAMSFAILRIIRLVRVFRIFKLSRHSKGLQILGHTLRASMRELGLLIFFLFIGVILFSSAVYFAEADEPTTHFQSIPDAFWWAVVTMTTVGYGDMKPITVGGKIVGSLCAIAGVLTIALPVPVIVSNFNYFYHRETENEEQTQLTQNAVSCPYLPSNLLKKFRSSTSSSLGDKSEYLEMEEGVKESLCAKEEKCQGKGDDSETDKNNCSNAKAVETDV
T6 sequence (Q96RP8 whole entry): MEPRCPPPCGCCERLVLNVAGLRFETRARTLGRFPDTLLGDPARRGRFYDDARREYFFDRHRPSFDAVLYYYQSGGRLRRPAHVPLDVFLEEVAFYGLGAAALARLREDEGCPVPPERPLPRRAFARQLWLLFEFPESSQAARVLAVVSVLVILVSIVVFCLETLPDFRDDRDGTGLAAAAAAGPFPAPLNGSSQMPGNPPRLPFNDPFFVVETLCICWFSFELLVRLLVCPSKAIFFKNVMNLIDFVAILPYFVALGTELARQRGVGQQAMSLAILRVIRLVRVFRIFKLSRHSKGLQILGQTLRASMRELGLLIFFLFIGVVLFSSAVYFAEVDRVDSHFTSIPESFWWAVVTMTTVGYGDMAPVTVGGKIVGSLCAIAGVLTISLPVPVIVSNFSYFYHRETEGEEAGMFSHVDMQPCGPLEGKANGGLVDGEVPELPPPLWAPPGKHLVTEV
T7 sequence (Q12809 whole entry): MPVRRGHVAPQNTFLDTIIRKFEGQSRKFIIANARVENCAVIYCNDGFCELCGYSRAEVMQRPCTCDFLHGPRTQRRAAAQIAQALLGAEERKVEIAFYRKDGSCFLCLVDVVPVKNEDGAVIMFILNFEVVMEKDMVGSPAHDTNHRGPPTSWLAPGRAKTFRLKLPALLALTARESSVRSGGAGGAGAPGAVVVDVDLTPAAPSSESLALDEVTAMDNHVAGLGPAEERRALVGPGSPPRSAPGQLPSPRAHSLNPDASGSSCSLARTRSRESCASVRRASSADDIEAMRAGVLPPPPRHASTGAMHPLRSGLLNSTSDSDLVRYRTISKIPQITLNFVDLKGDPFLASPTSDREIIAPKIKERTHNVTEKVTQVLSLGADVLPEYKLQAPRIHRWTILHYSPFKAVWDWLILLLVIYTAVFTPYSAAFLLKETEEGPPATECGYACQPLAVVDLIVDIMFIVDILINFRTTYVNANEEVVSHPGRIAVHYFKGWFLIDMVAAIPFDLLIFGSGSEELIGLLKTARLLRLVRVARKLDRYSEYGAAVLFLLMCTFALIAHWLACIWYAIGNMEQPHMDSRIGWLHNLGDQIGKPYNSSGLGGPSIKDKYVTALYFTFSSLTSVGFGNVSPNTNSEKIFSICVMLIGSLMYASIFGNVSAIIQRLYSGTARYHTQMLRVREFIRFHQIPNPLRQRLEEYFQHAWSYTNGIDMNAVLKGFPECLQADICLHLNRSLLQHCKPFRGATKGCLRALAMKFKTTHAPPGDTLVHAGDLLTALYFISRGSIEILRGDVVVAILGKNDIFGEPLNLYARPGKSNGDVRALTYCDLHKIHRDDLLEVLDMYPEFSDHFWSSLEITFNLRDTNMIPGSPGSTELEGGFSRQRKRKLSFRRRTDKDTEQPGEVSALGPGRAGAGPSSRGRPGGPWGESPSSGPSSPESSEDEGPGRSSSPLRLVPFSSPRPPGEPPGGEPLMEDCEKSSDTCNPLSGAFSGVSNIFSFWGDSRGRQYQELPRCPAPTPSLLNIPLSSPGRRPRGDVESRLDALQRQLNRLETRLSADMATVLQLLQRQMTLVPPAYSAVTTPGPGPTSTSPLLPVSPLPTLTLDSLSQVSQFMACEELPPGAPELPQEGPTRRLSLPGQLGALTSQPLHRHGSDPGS

| SMILES | CYP IC50/KCa3.1 IC50 (CYP-2C19) | IC50 (KV1.5) | Microsomal Stability (human) % remaining @ 30 mins [1] | drug/control (% remaining @ 30 mins) [1] | IC50 (KV1.4) | CYP IC50/KCa3.1 IC50 (CYP-2C9) | IC50 (KCa3.1 channel; KCa3.1, Table 5) | IC50 (KV1.1) | CYP IC50/KCa3.1 IC50 (CYP-3A4) | IC50 (KV1.3) | half-life at 1 μM (in vitro) | IC50 (KV1.7) | IC50 (KV11.1 (hERG)) | IC50 (KCa2.2) | IC50 (KV4.2) | IC50 (KV3.1) | also measured |
| --- | --- | --- | --- | --- | --- | --- | --- | --- | --- | --- | --- | --- | --- | --- | --- | --- | --- |
| COC(=O)C1=C(C)NC(C)=C(C(=O)OC)C1c1ccc(F)c(C(F)(F)F)c1 [Compound 101] | 1226 | > 10 µM | 53% | 1.6 | > 10 µM | 162.5 | 16.2 ± 0.2 nM | > 10 µM | 79.75 | > 10 µM | 22 min | > 10 µM | > 10 µM | > 10 µM | > 10 µM | > 10 µM | IC50 (CYP-2C19; microsomes): > 20 µM; IC50 (CYP-2C9; microsomes): 2.6 µM; IC50 (KCa3.1 channel; IC50 (nM), block of KCa3.1, patch clamp (Table 2)): 16 ± 0.2 nM; IC50 (CYP-3A4; microsomes): 1.3 µM |
| COC(=O)C1=CNC=C(C(=O)OC)C1c1ccc(F)c(C(F)(F)F)c1 [Compound 103, Dimethyl 4-(4-fluoro-3-(trifluoromethyl)phenyl)-1,4-dihydropyridine-3,5-dicarboxylate] | 3279 | > 10 µM | 25% | 3.7 | > 10 µM | 836 | 6.1 ± 0.9 nM | > 10 µM | 3279 | > 10 µM | 16 min | > 10 µM | > 10 µM | > 10 µM | > 10 µM | > 10 µM | IC50 (KCa3.1 channel; KCa3.1 IC50 (nM), Table 3): 6.1 nM |
